Source: patent publication US11541060B2, “Pharmaceutical compositions for treating pain” (FOREVER CHEER INTERNATIONAL LIMITED, priority 2017, dated 2023)
Entries after “also recorded” stand apart in the source; their conditions may differ.

What was measured:
[1] = test system: morphine-induced place preference in mice; assay: Conditioned place preference (CPP) to morphine; type: in vivo
[2] = test system: behavioral itching (scratching) response in mice; assay: Itching response to intradermal compound 48/80; type: in vivo; conditions: compound 48/80 100 μg/50 μl intradermal, FIG. 7
[3] = test system: anxiety caused by nerve injury in mice; assay: Anxiety behavior test (EPM) after nerve injury; type: in vivo; conditions: FIG. 6
[4] = test system: pre-LTP in ACC; assay: pre-LTP in ACC cortical slices; type: cell-based, adult mice; conditions: 25 μM (SQ22356 'same dose'; NB011 concentration not given), FIG. 1B/FIG. 2
[5] = test system: morphine tolerance in mice; assay: Morphine tolerance after repeated morphine injections (hotplate, tail-flick); conditions: mouse, in vivo
[6] = target: adenylyl cyclase subtype 8 (AC8) (Homo sapiens, UniProt P40145); assay: cAMP assay in AC8 expressing cell line (biochemical screening for AC1 & 8 inhibitors); type: cell-based; conditions: for inhibition of AC8 activity (in words): 100 μM; for inhibition at 100 µM: read-out: Percent Inhibition AC8
adenylyl cyclase subtype 8 (AC8), sequence (P40145 whole entry, species assumed): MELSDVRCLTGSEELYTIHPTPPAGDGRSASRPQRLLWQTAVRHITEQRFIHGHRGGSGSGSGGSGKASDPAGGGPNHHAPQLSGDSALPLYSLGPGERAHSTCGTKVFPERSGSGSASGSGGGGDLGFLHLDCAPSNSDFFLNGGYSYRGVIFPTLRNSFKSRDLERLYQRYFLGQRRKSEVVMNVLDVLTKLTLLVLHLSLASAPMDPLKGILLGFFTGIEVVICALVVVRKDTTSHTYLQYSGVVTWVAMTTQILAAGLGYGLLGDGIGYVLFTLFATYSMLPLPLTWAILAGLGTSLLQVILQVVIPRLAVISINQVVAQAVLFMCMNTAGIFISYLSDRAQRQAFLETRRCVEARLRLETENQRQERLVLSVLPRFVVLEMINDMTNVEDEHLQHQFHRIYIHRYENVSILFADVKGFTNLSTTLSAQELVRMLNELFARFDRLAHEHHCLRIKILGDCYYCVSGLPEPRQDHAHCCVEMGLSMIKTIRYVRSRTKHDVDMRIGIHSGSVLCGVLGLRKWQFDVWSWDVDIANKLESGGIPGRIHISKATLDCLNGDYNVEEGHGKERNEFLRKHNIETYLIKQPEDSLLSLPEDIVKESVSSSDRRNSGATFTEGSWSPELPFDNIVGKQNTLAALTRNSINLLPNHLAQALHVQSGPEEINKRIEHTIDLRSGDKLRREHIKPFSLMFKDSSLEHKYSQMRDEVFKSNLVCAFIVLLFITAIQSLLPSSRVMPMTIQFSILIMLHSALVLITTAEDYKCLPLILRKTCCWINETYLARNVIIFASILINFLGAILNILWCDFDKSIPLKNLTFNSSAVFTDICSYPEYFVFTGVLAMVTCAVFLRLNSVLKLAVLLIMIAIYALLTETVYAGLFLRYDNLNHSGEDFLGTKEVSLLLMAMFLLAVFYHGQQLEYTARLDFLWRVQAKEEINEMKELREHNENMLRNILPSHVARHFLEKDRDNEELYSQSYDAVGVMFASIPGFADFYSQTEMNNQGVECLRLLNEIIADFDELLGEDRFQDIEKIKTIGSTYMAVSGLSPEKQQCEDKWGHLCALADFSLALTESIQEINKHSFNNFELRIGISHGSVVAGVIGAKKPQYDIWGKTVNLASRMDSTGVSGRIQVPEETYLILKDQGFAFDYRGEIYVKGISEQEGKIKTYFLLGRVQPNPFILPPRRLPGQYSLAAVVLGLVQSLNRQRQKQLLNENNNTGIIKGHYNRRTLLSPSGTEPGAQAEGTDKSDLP

[7] = target: adenylyl cyclase subtype 1 (AC1) (Homo sapiens, UniProt Q08828); assay: cAMP assay in AC1 expressing cell line (biochemical screening for AC1 & 8 inhibitors); type: cell-based; conditions: for inhibition of AC1 activity (in words): 100 μM; for inhibition at 100 µM: read-out: Percent Inhibition AC1
adenylyl cyclase subtype 1 (AC1), sequence (Q08828 whole entry): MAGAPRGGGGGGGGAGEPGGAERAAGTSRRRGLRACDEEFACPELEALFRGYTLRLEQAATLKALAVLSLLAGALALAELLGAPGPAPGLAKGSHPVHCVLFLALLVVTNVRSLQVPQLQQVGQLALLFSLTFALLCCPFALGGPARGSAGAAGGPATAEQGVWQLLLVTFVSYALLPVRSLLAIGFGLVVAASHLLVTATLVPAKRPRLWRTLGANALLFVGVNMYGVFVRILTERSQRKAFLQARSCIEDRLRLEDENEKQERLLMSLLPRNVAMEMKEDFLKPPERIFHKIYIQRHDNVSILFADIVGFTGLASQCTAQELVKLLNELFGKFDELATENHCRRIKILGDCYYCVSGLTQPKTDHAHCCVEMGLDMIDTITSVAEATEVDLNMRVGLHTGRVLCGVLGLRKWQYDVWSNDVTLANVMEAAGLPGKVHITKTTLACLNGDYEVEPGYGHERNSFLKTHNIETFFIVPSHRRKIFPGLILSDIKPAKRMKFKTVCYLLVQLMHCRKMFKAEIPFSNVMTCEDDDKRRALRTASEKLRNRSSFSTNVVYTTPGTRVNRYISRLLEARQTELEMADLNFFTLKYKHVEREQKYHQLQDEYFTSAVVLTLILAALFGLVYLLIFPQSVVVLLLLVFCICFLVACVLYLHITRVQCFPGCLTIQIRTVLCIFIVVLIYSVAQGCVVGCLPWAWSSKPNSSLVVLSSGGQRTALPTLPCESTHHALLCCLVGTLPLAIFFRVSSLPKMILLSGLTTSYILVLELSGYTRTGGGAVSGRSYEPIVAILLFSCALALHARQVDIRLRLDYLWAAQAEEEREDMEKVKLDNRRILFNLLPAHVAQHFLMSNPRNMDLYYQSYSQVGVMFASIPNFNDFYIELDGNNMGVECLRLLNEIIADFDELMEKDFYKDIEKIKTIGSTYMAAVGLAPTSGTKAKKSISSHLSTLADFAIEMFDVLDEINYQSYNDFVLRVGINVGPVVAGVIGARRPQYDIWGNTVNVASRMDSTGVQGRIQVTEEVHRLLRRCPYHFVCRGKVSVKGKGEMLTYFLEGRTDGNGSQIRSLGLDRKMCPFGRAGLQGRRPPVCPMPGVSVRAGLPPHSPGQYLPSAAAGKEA

[8] = test system: post-LTP in ACC; conditions: recent report (Chen et al., 2014); cited from earlier work
[9] = test system: post-LTP in ACC; assay: post-LTP (ACC LTP) in ACC cortical slices; type: cell-based; conditions: 25 μM, ACC slices of adult mice, FIG. 1A

| Structure (SMILES) | morphine-induced place preference ([1]; mouse, in vivo) | total scratching (itching) responses ([2]; 5 mg/kg) | morphine-induced place preference ([1]; 5 mg/kg, morphine 10 mg/kg, after 9 days, FIG. 5) | anxiety caused by nerve injury (EPM test) ([3]; 5 mg/kg, 7 days after injury) | induction of pre-LTP [4] | morphine tolerance / morphine analgesic effect [5] | total scratching (itching) responses ([2]; pretreatment (dose not given)) | inhibition of AC8 activity (in words) [6] | inhibition at 100 µM [6] [%] | morphine-induced place preference ([1]; dose reduced to 1 mg/kg (not shown in figure)) | anxiety caused by nerve injury (EPM test) ([3]; low dose 1 mg/kg, 1 mg/kg) | inhibition of AC1 activity (in words) [7] | inhibition at 100 µM [7] [%] | morphine tolerance / morphine analgesic effect ([5]; 1 mg/kg) | total scratching (itching) responses ([2]; 100 mg/kg) | total scratching (itching) responses ([2]; 100 mg/kg, listed as GABApention) | morphine-induced place preference ([1]; 100 mg/kg, morphine 10 mg/kg, after 9 days, FIG. 5) | anxiety caused by nerve injury (EPM test) ([3]; 100 mg/kg i.p.) | effect on ACC LTP [8] | induction of post-LTP (ACC LTP) [9] |
| --- | --- | --- | --- | --- | --- | --- | --- | --- | --- | --- | --- | --- | --- | --- | --- | --- | --- | --- | --- | --- |
| Nc1ncnc2c1ncn2CCNCCCCCO [NB001, 5-((2-(6-amino-9H-purin-9-yl)ethyl)amino)pentane-1-ol] | significantly less time; also recorded: significant reduce; also recorded: expected effect was not produced |  |  |  |  |  |  |  |  |  |  |  |  |  |  |  |  |  |  |  |
| Nc1ncnc2c1ncn2C1CCCO1 (centres unmarked) [SQ22356, reference compound] |  | did not show significantly reduction | did not produce any inhibition | Neither GABApentin (100 mg/kg, i.p.) nor SQ22356 (5 mg/kg) significantly reduced; also recorded: no significant effect | did not cause a significant decrease | no significant effect; also recorded: did not produce any significant effect |  |  |  |  |  |  |  |  |  |  |  |  |  |  |
| c1nc(N2CCOCC2)c2nc[nH]c2n1 [NB011, 4-(9H-purin-6-yl)morpholine] |  |  |  | significant reduction; also recorded: reduced anxiety | inhibit; also recorded: decrease | significant greater analgesic effects; also recorded: reduced | significantly reduced | significant inhibition | 86 ± 2 | expected effect was not produced | neither NB010 nor NB011 affected anxiety | significant inhibition | 91 ± 3 | no significant effect |  |  |  |  |  |  |
| NCC1(CC(=O)O)CCCCC1 [GABApentin, reference compound] |  |  |  |  | not blocked | did not produce a significant effect; also recorded: did not produce any significant effect |  |  |  |  |  |  |  |  | neither GABApentin nor SQ22356 produce any significant effect | did not cause a significant reduction | did not produce any significant effect | Neither GABApentin (100 mg/kg, i.p.) nor SQ22356 (5 mg/kg) significantly reduced; also recorded: no significant effect | does not affect |  |
| Cc1ccc(OCCn2c(S)nc3c(N)ncnc32)cc1 [NB010] |  |  |  | significant reduction; also recorded: reduced anxiety | inhibit; also recorded: blocked | significant greater analgesic effects; also recorded: reduced | significantly reduced | significant inhibition | 88 ± 2 |  | did not significantly decrease; also recorded: neither NB010 nor NB011 affected anxiety | significant inhibition | 96 ± 4 | no significant effect |  |  |  |  |  | blocked |
